Where two headings read alike, the source gives them in different places.
How the values were obtained:
[1] = in vivo
Excerpt: Suitable dosages are described herein below and can be determined by a doctor based on usual parameters like e.g. the weight and age of the patient, and the current status of the disease.

[2] = test system: severe acne on back or chest; conditions: 2 g cream, 0.5% 4-Oxotretinoin or up to 1% 4-Oxo-Isotretinoin, topical on back, 4 weeks minimum; Leeds grade 5 to 8
Excerpt: Fifteen male patients aged between 18 and 65 with severe acne on back or chest rated a grade of 5 to 8 according to the Leeds revised acne grading system (Journal of Dermatological Treatment (1989) 9, 215-220) are enrolled in a pilot study.
After completion of the treatment, the grade of the acne in the designated treatment area is once more determined and compared with the surrounding area of the skin.

lipogenesis in epidermis = assay: study of lipogenesis in skin biopsies (14C-Dextrose integrated in epidermis lipids); format: in vivo, Fuzzy rats
Method: At the end of the treatment, animals were anaesthetized with Pentobarbital 70 mg/kg by IP route. For each rat, two biopsies of 3-mm of dorsal skin per treated region with test substances were collected. Each biopsy was weighed. Rats were sacrificed by inhalation of CO2.
The biopsies (from 175 to 466 mg) were incubated in 1 ml of KRB in presence of 5 μCi D-[U-^14C]-Dextrose/ml at 37° C., 5% CO2 for 3 h.
After incubation, biopsies were rinsed 3 times with 3 ml of KRB. Dermis and epidermis were separated according to method described by Levang A. K. et al..
So, skin biopsies were soaked in water at 60° C. for 45 s. The skin was then removed and blotted dry and pinned with the dermal skin side down. The epidermis and dermis were separated by scrapping and epidermis was weighted.
Each fraction (100 mg) epidermis was cut into small fragments by using scalpels. Fragments were homogenized with chloroform:methanol [(2:1; v:v), Ref. C2432, batch No. 055K0070, Sigma, France: Ref M3641-1L, batch No. 104K3641, Sigma, France] according to the ratio 50 mg of tissue/ml of chloroform:methanol (2:1; v:v) with Potter-Elvehjem type of homogenizer (Ref. 48780, Dutscher, France).
Then, the mixture was washed with 0.2 volume of water. Two phases were separated by centrifugation during 20 min at 800 g.
The rate of lipid extraction was calculated as following: • R=(dpm[4-14C]Cholesterol after extraction)/dpm[4-14C]Cholesterol before extraction×100
The lipogenesis was evaluated as the number of dpm/100 mg tissue. • Lipogenesis=cpm×R×AS (D-[U-^14C]-Dextrose)
At the end of treatment (D25), rats were anaesthetized, skin biopsies were collected and lipogenesis was assessed. Briefly, biopsies were incubated with ^14C-Dextrose in Krebs-Ringer buffer for 3 h at 37° C., 5% CO2. After separation of dermis and epidermis, total lipids were extracted from epidermis. Radioactivity was counted using a β-counter.

sebaceous gland size = assay: study of sebaceous gland size in skin biopsies (histology); format: in vivo, Fuzzy rats; conditions: D25
Method: The other biopsies were transferred in fixative solution of 4% Paraformaldehyde Fixative (PAF; Ref. 1.04003.5000, Merck, France) solution for further paraffin-embedding and sebaceous gland size analysis.
The size of sebaceous gland was evaluated by histological study of biopsies.
Biopsies fixed in PAF 4% were paraffin-embedded by the ASP 300 (Leica) automat according to the following procedure:
Histological sections of biopsies were realized (5 sections/biopsy).
Each one was colored by Hemalun/Eosin/Safran OTTIX coloration method according to the following protocol:
A microscopic observation by using a CKX41 light microscope (Olympus, France) was performed. Each sebaceous gland within 1 section/biopsy was numerized with a digital camera (Pwershot A80, Canon) and was measured by using ImageJ software 1.32j.
Each sebaceous gland within 1 section/biopsy was numerized with a digital camera (Pwershot A80, Canon) and was measured by using ImageJ software 1.32j. The mean of gland size was calculated for each group.
At the end of treatment (D25; Oct. 13, 2006), rats were anaesthetized, skin biopsies were collected and embedded in paraffin before being stained by an hematoxylin/eosin solution. Biopsies were then observed and numerized by using a microscope. All sebaceous glands within a biopsy were measured.

skin [3] = test system: skin
Excerpt: Observations and examinations included clinical monitoring of skin reaction and histopathological examination of excised skin specimen at study end.

[4] = topical 1.5% 4-oxo-tretinoin or 2% 4-oxo-isotretinoin, n=5 per compound, serial samples
sebum excretion rate = conditions: cited from earlier work
skin [5] = conditions: in human, applied topically as cream; cited from earlier work
hairless ("fuzzy") rats = conditions: nontoxic dosages (no body weight loss), cited from earlier work
hairless mice = conditions: nontoxic dosages (no body weight loss); cited from earlier work
severe acne = conditions: oral; cited from earlier work
[6] = test system: sebaceous gland size and sebum production; conditions: topical versus oral; cited from earlier work
[7] = test system: dermal lipogenese and sebum production; conditions: topical; cited from earlier work
[8] = 0.1% topical, 0.025 mg/2 cm^2, (Q1DX5)×4 weeks, D25
[9] = 0.5% topical, 0.125 mg/2 cm^2, (Q1DX5)×4 weeks, D25
[10] = 0.1% topical, 0.025 mg/2 cm^2, (Q1DX5)×4 weeks
[11] = 10 mg/kg PO, (Q1DX5)×4 weeks, D25
[12] = 0.2% topical, 0.050 mg/2 cm^2, (Q1DX5)×4 weeks, D25

Q: For `CC1=C(/C=C/C(C)=C/C=C/C(C)=C\C(=O)O)C(C)(C)CCC1=O` [4-oxo-isotretinoin, 4-oxo-13-cis-retinoic acid], which endogenous plasma level [1] is on record?
A: about 4.85±3.89 ng/mL

Q: And the “clinical rating of the acne in the treated area compared with untreated skin” value [2]?
A: reduces the clinical rating of the acne in the treated area significantly

Q: What about the “Mean DPM ± SD, Epidermis (100 mg)” value (lipogenesis in epidermis; [8]) of the same compound?
A: 5499 ± 2599 DPM

Q: What about the “Mean pmole 14C-dextrose ± SD integrated in 100 mg of tissue (epidermis)” value (shortened to “Mean pmole 14C-dextrose ± SD integrated”) (lipogenesis in epidermis; [8]) of the same compound?
A: 6.95±3.31 pmole of 14C-Dextrose/100 mg

Q: What about the “lipogenesis in epidermis, percent of control group” value (shortened to “lipogenesis in epidermis, percent”) (lipogenesis in epidermis; [8]) of the same compound?
A: 71%

Q: And the “Mean pmole 14C-dextrose ± SD integrated” value (lipogenesis in epidermis; 0.1% topical, 0.025 mg/2 cm^2, (Q1DX5)×4 weeks, D25, listed as 4-Oxo-isotretinoin)?
A: 6.95 ± 3.31 pmole of 14C-Dextrose/100 mg

Q: What about the “Mean DPM ± SD, Epidermis (100 mg)” value (lipogenesis in epidermis; [9]) of the same compound?
A: 6524 ± 1792 DPM

Q: And the “Mean pmole 14C-dextrose ± SD integrated” value (lipogenesis in epidermis; [9])?
A: 8.25±2.28 pmole of 14C-Dextrose/100 mg

Q: What about the “lipogenesis in epidermis, percent” value (lipogenesis in epidermis; [9]) of the same compound?
A: 84%

Q: And the “Mean pmole 14C-dextrose ± SD integrated” value (lipogenesis in epidermis; 0.5% topical, 0.125 mg/2 cm^2, (Q1DX5)×4 weeks, D25, listed as 4-Oxo-isotretinoin)?
A: 8.25 ± 2.28 pmole of 14C-Dextrose/100 mg

Q: And the “mean sebaceous gland size, Mean ± SD” value (sebaceous gland size; [10])?
A: 24988±15931 pixel^2

Q: What about the “sebaceous gland size, percent of control group” value (sebaceous gland size; [10]) of the same compound?
A: (82%)

Q: And the “mean sebaceous gland size, Mean ± SD” value (sebaceous gland size; 0.1% topical, 0.025 mg/2 cm^2, (Q1DX5)×4 weeks, listed as 4-Oxo-isotretinoin)?
A: 24998 ± 15931 pixel^2

Q: What about the “skin irritation (clinical monitoring of skin reaction)” value (skin [3]; any concentration (0.1, 0.5, 1 or 2%), once daily, 5 days per week, 4 weeks, acetone/ethanol (1:1)) of the same compound?
A: No signs of skin irritation

Q: And the “inter-conversion of the 4-oxo isomers: skin and strip levels of both isomers” value [4]?
A: skin exposure to both 4-oxo-isotretinoin and 4-oxo-tretinoin could be demonstrated

Q: And the sebum excretion rate (sebum excretion rate; applied orally)?
A: reduces the sebum excretion rate

Q: What about the “pharmacological activity relative to parent drug isotretinoin” value (sebum excretion rate; in vivo) of the same compound?
A: only half as active pharmacologically

Q: Which “Mean DPM ± SD, Epidermis (100 mg)” value (lipogenesis in epidermis; [11]) does the source give for `CC1=C(/C=C/C(C)=C/C=C/C(C)=C\C(=O)O)C(C)(C)CCC1` [13-cis-RA, 13-cis retinoic acid, reference compound] here?
A: 5188 ± 1875 DPM

Q: And the “Mean pmole 14C-dextrose ± SD integrated” value (lipogenesis in epidermis; [11])?
A: 6.55±2.38 pmole of 14C-Dextrose/100 mg

Q: And the “change of lipogenesis in epidermis versus vehicle group” value (lipogenesis in epidermis; 10 mg/kg PO, (Q1DX5)×4 weeks, p<0.05)?
A: −33%

Q: What about the activity at 10 mg/kg (lipogenesis in epidermis; Rattus norvegicus, 672 h, 10 mg/kg PO, (Q1DX5)×4 weeks, D25, read-out: lipogenesis in epidermis, percent of control group) of the same compound?
A: 67%

Q: What about the “mean sebaceous gland size, Mean ± SD” value (sebaceous gland size; 10 mg/kg PO, (Q1DX5)×4 weeks) of the same compound?
A: 25493±17065 pixel^2

Q: What about the activity at 10 mg/kg (sebaceous gland size; Rattus norvegicus, 672 h, 10 mg/kg PO, (Q1DX5)×4 weeks, read-out: sebaceous gland size, percent of control group) of the same compound?
A: 83.8%

Q: And the “strength of topical cream that showed local irritation” value (skin [5])?
A: 0.1%

Q: And the “sebosuppressive effect after topical administration” value (shortened to “sebosuppressive effect”) (hairless ("fuzzy") rats; listed as 13-cis retinoic acid)?
A: no detectable sebosuppressive effects

Q: What about the “sebosuppressive effect” value (hairless ("fuzzy") rats; listed as 13-cis-retinoic acid) of the same compound?
A: substantially no detectable sebosuppressive activity

Q: And the “sebosuppressive effect” value (hairless mice)?
A: no detectable sebosuppressive effects

Q: What about the “patients with severe acne reaching long-term remission” value (severe acne) of the same compound?
A: 80%

Q: What about the “reduction of effectiveness in reducing sebaceous gland size and suppressing sebum production, topical compared to oral administration” value [6] of the same compound?
A: up to 90%

Q: What about the “influence on the dermal lipogenese and sebum production” value [7] of the same compound?
A: Neither topical tretinoin nor topical isotretinoin have been found to have an influence

Q: With `CC1=C(/C=C/C(C)=C/C=C/C(C)=C/C(=O)O)C(C)(C)CCC1` [tretinoin, all-trans retinoic acid] as the compound, how does the “strength of topical cream that showed local irritation” value (skin [5]) read?
A: 0.05%

Q: What about the “influence on the dermal lipogenese and sebum production” value [7] of the same compound?
A: Neither topical tretinoin nor topical isotretinoin have been found to have an influence

Q: Which endogenous plasma level [1] does the source give for `CC1=C(/C=C/C(C)=C/C=C/C(C)=C/C(=O)O)C(C)(C)CCC1=O` [4-oxo-tretinoin, 4-oxo-all-trans-retinoic acid] here?
A: about 9.88±7.57 ng/mL

Q: And the “clinical rating of the acne in the treated area compared with untreated skin” value [2]?
A: reduces the clinical rating of the acne in the treated area significantly

Q: And the “Mean DPM ± SD, Epidermis (100 mg)” value (lipogenesis in epidermis; [8])?
A: 7024 ± 1970 DPM

Q: And the “Mean pmole 14C-dextrose ± SD integrated” value (lipogenesis in epidermis; [8])?
A: 9.10±5.23 pmole of 14C-Dextrose/100 mg

Q: What about the “lipogenesis in epidermis, percent” value (lipogenesis in epidermis; [8]) of the same compound?
A: 91%

Q: And the “Mean pmole 14C-dextrose ± SD integrated” value (lipogenesis in epidermis; 0.1% topical, 0.025 mg/2 cm^2, (Q1DX5)×4 weeks, D25, listed as 4-Oxo-tretinoin)?
A: 8.89 ± 2.51 pmole of 14C-Dextrose/100 mg

Q: And the “Mean DPM ± SD, Epidermis (100 mg)” value (lipogenesis in epidermis; [12])?
A: 4993 ± 2219 DPM

Q: And the “Mean pmole 14C-dextrose ± SD integrated” value (lipogenesis in epidermis; [12])?
A: 6.30±2.80 pmole of 14C-Dextrose/100 mg

Q: What about the “lipogenesis in epidermis, percent” value (lipogenesis in epidermis; [12]) of the same compound?
A: 64%

Q: What about the “Mean pmole 14C-dextrose ± SD integrated” value (lipogenesis in epidermis; 0.2% topical, 0.050 mg/2 cm^2, (Q1DX5)×4 weeks, D25, listed as 4-Oxo-tretinoin) of the same compound?
A: 6.30 ± 2.80 pmole of 14C-Dextrose/100 mg

Q: And the “histopathological examination of treated skin areas” value (skin [3]; concentration-dependent, once daily, 5 days per week, 4 weeks)?
A: concentration-dependent hyperkeratosis, acanthosis and hypertrophy/hyperplasia of sebaceous glands

Q: And the “skin irritation (clinical: reddening (erythema) and occasional scaling)” value (skin [3]; concentrations ≧0.5% (tested 0.1 to 1.5%), once daily, 5 days per week, 4 weeks)?
A: dose-dependent slight to moderate skin irritation

Q: What about the “histopathological examination of treated skin areas: necrosis” value (skin [3]; concentrations ≧1%) of the same compound?
A: occasional necrosis

Q: And the “inter-conversion of the 4-oxo isomers: skin and strip levels of both isomers” value [4]?
A: skin exposure to both 4-oxo-isotretinoin and 4-oxo-tretinoin could be demonstrated

From patent US20090149536A1, “4-OXO-(ISO)TRETINOIN FOR THE TOPICAL TREATMENT OF SEVERE DERMATOLOGICAL DISORDERS” (priority 2005, published 2009)
